Measurements taken from US20110129467A1, “THERAPEUTIC COMBINATION COMPRISING AN AURORA KINASE INHIBITOR AND ANTIPROLIFERATIVE AGENTS” (NERVIANO MEDICAL SCIENCES S.R.L., priority 2008, published 2011).
Where two headings read alike, the source gives them in different places.

Assays:
[1] = system: DU145 prostate carcinoma cells; settings: previously demonstrated (The Prostate 36: 1-10, 1998); cited from earlier work
[2] = system: DU145 prostate carcinoma cells; experiment: In vivo antitumor efficacy, DU145 prostate carcinoma subcutaneous xenograft in athymic mice; settings: Compound 1 15 mg/kg ip BID, Bevacizumab 20 mg/kg ip days 9, 13, 17; for Time to reach 1 g / T-C: DU145 sc in athymic mice; for T-C: delay vs control to reach 1 g
Method: Balb, Nu\Nu male mice, from Harlan (Italy), were maintained in cages with paper filter cover, food and bedding sterilized and water acidified. 2.5×10^6 DU145 prostate carcinoma cells (from the American Type Culture Collection) were injected subcutaneously in athymic mice. […] The treatment started at day 9 after cell injection, when tumors were palpable with a tumor weight mean for all the groups of 0.15 g.
Bevacizumab was administered intraperitoneally in a volume of 10 ml/kg at the dose of 20 mg/kg on days 9, 13, 17 from the days of tumor cells injection. […] Tumor growth and body weight were measured every 3 days. Tumor growth was assessed by caliper. […] This delay (T-C value) was defined as the difference of time (in days) required for the treatment group (T) and the control group(C) tumors to reach a predetermined size (1 g). Toxicity was evaluated on the basis of body weight reduction.

[3] = system: HL-60 human acute myeloid leukaemia cells; settings: HL-60 sc in SCID mice; for T-C: delay vs control to reach 1 g
Method: The treatment started 12 days later tumor cells injection when tumors were palpable.
When combined, Compound 1 was administered in the interval between the bortezomib treatments at days 13, 14, 15, 17, 18, 19, 21, 22, 23, 25, 26 and 27. […] Tumor growth was assessed by caliper.

[4] = system: HL-60 human acute myeloid leukaemia cells; settings: HL-60 model; previously demonstrated; cited from earlier work
[5] = Compound 1 15 mg/kg ip BID, Bortezomib 0.5 mg/kg iv days 12, 16, 20, 24
[6] = Bortezomib 1 mg/kg iv days 12, 16, 20, 24 (combination: + Compound 1 15 mg/kg ip)

In the case of “Bevacizumab: antibody to vascular endothelial growth factor; marketed as Avastin”, the “effect on angiogenesis and growth of the tumor model in vivo” value [1] is given as “inhibits angiogenesis and growth of the model in vivo”, the “Time to reach 1 g” value [2] is given as 18.5 days and the “T-C” value [2] is given as 3.1 days. The Toxicity ([2]; evaluated on body weight reduction) was 0/8.
For `CO[C@@H](C(=O)N1Cc2[nH]nc(NC(=O)c3ccc(N4CCN(C)CC4)cc3)c2C1)c1ccccc1` [Compound 1, N-{5-[(2R)-2-methoxy-2-phenylethanoyl]-1,4,5,6-tetrahydropyrrolo[3,4-c]pyrazol-3-yl}-4-(4-methylpiperazin-1-yl)benzamide], the “Time to reach 1 g” value [3, 5] is listed as 24.7 days, the “T-C” value [3, 5] is listed as 9.1 days and the “effect on growth of the tumor model in vivo” value [4] is listed as “inhibits growth of the model in vivo”. The “Time to reach 1 g” value [2] was 23.9 days and the “T-C” value [2] was 8.5 days.
For `CC(C)C[C@H](NC(=O)[C@H](Cc1ccccc1)NC(=O)c1cnccn1)B(O)O` [Bortezomib], the “Time to reach 1 g” value [3, 6] was 23.8 days, the “Time to reach 1 g” value [3, 5] was 19 days and the “T-C” value [3, 6] was 8.2 days. The “T-C” value [3, 5] was 3.4 days.
